Laboratory results reported in ChEMBL document CHEMBL1124044, “4-N-hydroxy-L-2,4-diaminobutyric acid. A strong inhibitor of glutamine synthetase” (J Med Chem, 1988).

Tests used:
[1] = system: Glutamine synthetase (Glycine max); assay: Percent inhibition was measured on Soybean Glutamine synthetase at 0.2 mM concentration
[2] = system: Glutamine synthetase (Glycine max); conditions: at 0.1 mM
[3] = system: Glutamine synthetase (Glycine max); assay: Percent inhibition was measured on Soybean Glutamine synthetase at 0.5 mM concentration
[4] = system: Glutamine synthetase (Ovis aries); assay: Percent inhibition was measured on Sheep Brain Glutamine synthetase at 0.5 mM concentration
[5] = system: Glutamine synthetase (Ovis aries); assay: Percent inhibition was measured on Sheep Brain Glutamine synthetase at 0.1 mM concentration
[6] = system: Glutamine synthetase (Ovis aries); assay: Percent inhibition was measured on Sheep Brain Glutamine synthetase at 0.2 mM concentration
[7] = system: Glutamine synthetase (Ovis aries); conditions: at 0.5 mM
[8] = system: Glutamine synthetase (Ovis aries); assay: Percent inhibition was measured on Sheep Brain […] at 0.1 mM concentration
[9] = system: Glutamine synthetase (Glycine max); conditions: at 0.5 mM
[10] = system: Glutamine synthetase (Ovis aries); conditions: at 0.2 mM
[11] = system: Glutamine synthetase (Glycine max); conditions: at 0.2 mM

inhibition [7] [%]	inhibition [8] [%]	inhibition [9] [%]	inhibition [10] [%]	inhibition [11] [%]	SMILES	inhibition [1] [%]	inhibition [2] [%]	inhibition [3] [%]	inhibition [4] [%]	inhibition [5] [%]	inhibition [6] [%]
					NCC(O)CCC(N)C(=O)O (configuration not stated)	9	5	21	22	5	11
8	0	0	4	0	CNO		0				
